Test results taken from US12029747B2, “Use of baicalin in preparation of drug for treating tumor irresponsive to immune checkpoint inhibitors (ICIs)/undergoing hyperprogression” (BEIJING FRIENDSHIP HOSPITAL, CAPITAL MEDICAL UNIVERSITY, priority 2022, dated 2024).
“Also recorded” adds a separate entry of the source.

Legend:
[1] = test system: Lewis lung carcinoma (LLC); assay: Therapeutic effect in PD-1 mAb-irresponsive (NR-FMT) LLC-bearing mice: tumor volume and weight; type: in vivo, C57BL/6J mice; conditions: compared with NR-Control group, HQG intragastric daily, PD-1 mAb i.p. once every 3 days
Description: Pseudo-germ-free mouse modeling: Mice were treated with broad-spectrum antibiotics to construct pseudo-germ-free mouse models. 36 female C57BL/6J mice at 5 weeks (experimental animal license No.: SCXK (Beijing) 2019-0009) were purchased from Beijing Vital River Laboratory Animal Technology Co., Ltd. The mice were raised under the following conditions: cleanliness: SPF level; room temperature: 20° C. to 22° C.; humidity: 60±5%; 12 h light/12 h dark alternating cycle; and free eating and drinking. All animal protocols in this experiment were approved by the Beijing MaideiKangna Animal Ethics Committee, and animal experimental operations were conducted under the guidance of the Laboratory Animal Protection Association.
After the mice were raised adaptively for one week, the mice were intragastrically administered daily with 100 μL of ABT for consecutive 3 days. […]
Subcutaneous inoculation of LLC cells: An LLC cell suspension with a concentration of about 1×10^7 cells/mL was inoculated at a right axilla of a fecal bacteria-transplanted mouse with an inoculum size of 0.2 mL/mouse. The longest and shortest diameters of a tumor were measured by a vernier caliper, and a volume of the tumor=½ longest diameter×shortest diameter^2. […]
(§1) During administration, a body weight of mice was monitored every 3 days, and a tumor volume was measured.

Foxp3^+Treg cells = assay: Detection of Foxp3+Treg cells in a tumor tissue by FCM (NR-FMT LLC-bearing mice); type: in vivo, C57BL/6J mice; conditions: flow cytometry of tumor tissue
[2] = Adverse reactions in treated tumor-bearing mice; type: in vivo; conditions: tumor-bearing mice irresponsive to ICIs
Description: as §1

O=C(O)[C@H]1O[C@@H](Oc2cc3oc(-c4ccccc4)cc(=O)c3c(O)c2O)[C@H](O)[C@@H](O)[C@@H]1O [HQG, baicalin]
tumor volume [1]: no significant difference; also recorded: not reduced
tumor weight [1]: no significant difference; also recorded: not reduced
number of Foxp3+Treg cells in a tumor (Foxp3^+Treg cells): not reduced
adverse reactions [2]: no significant adverse reactions
